# Assays:
# [1] = test system: ADAR1p150 splice isoform; leukemia stem cells; conditions: cited from earlier work
# [2] = test system: KG-1a AML cells; test: KG-1a cell viability by flow cytometry; assay type: cell-based, human; conditions: 24 hr
# Text: (FIG. 29A) Quantification of cell viability (left panel) and splicing modulation (RFP/GFP ratios, right panel) by flow cytometry analyses of the human AML cell line (KG-1a) stably transduced with a lentiviral dual-fluorescence splicing reporter vector and treated with increasing concentrations of Rebecsinib.
# For generation of stably transduced splicing reporter cell lines, a previously described splicing reporter construct^31 was cloned into a lentiviral vector backbone.^52 KG-1a cells were transduced with the dual-fluorescent lentiviral splicing reporter vector, treated with various concentrations of Rebecsinib (3-fold serial dilutions from 3 μM to 4 nM) for 24 hr, washed followed by DAPI staining, and analyzed by flow cytometry for cell viability and RFP/GFP fluorescence intensity. Results were from duplicate wells of each condition. Viability of cells treated with DMSO (0.5% final concentration) was set as 100%. Nonlinear regression curve fit analysis was carried out using Prism software (GraphPad) to determine ECso values for viability and mean fluorescence intensity (MFI) of RFP and GFP.
# [3] = test system: ADAR1, CD44v3, MCL1-L; test: LSC-associated transcripts and ADAR1 activity after treatment or ADAR1 shRNA knockdown; assay type: cell-based, human; conditions: phenocopied ADAR1 shRNA knockdown
# Text: For lentivirus-mediated knockdown of human ADAR1 in ADAR1 activation and RNA editing biomarker studies of the nanoluc-GFP reporter and endogenous transcripts, human leukemia cells were stably transduced with the lentiviral shRNA vectors targeting ADAR1 (shADAR1) or scrambled control (shCtrl) to ablate endogenous ADAR1 expression. The shRNA plasmids targeting ADAR1 (shADAR1) as well as the scrambled control (shCtrl) were purchased from VectorBuilder (Chicago, IL) (shCtrl: […] (SEQ ID NO:3) and shADAR1: […]) (SEQ ID NO:4). […] Viral titers were assessed by qRT-PCR and transduction efficiency was tested in 293T cells. […]
# For quantitative analysis of splice isoform expression, RNA editing rates, and whole gene expression by qRT-PCR, cells or tissue fragments were harvested in RNA lysis buffer and total RNA was extracted using RNeasy mini or micro extraction kits (QIAGEN, Germantown, MD) following the manufacturer's protocol including a DNase incubation step to digest any trace genomic DNA present. Levels of ADAR1 variants and LSC-specific transcripts were quantified by qRT-PCR as previously described.^14 RNA-editing site-specific qRT-PCR (RESSqPCR) was performed for variants in AZIN1 transcripts.^53 Additional species-specific primers were also designed to quantify intron retention rates in cells treated with Rebecsinib as a biomarker of response to RNA splicing modulation. […]
# [4] = test system: ADAR1; test: ADAR1 nanoluc-GFP reporter assay in primary high-risk MF CD34+ cells in stromal co-culture; assay type: cell-based, human; conditions: primary high-risk MF HPCs, 72 hr; p<0.05 compared to DMSO
# Text: (FIG. 27F) Luminescence-based quantification of ADAR1-dependent nanoluciferase signals in CD34^+ cells from primary, high-risk MF samples (*=untreated patient) after in vitro transduction with the ADAR1 nanoluc-GFP reporter and treatment with vehicle control (DMSO) or Rebecsinib (72 hr). Relative luciferase signals were normalized to cell viability for each condition. Data are represented as mean±SEM. p<0.05 compared to DMSO controls by pairwise t-test.
# For nanoluciferase RNA editing activity assays, CD34^+ selected cells from primary high-risk MF samples were lentivirally transduced with ADAR1 nanoluc-GFP reporter for 48 hr, followed by treatment with DMSO or Rebecsinib in stromal co-culture for 72 hr. Luminescence reporter activity was measured in 10,000 cells by NANO-GLO LUCIFERASE ASSAY™ and values were normalized to cell viability. Cell viability was measured in 10,000 cells by CellTiter-Glo Luciferase Assay (Promega). A pilot in vivo reporter assay was also performed using TF-1a cells that were stably transduced with the ADAR1 nanoluc-GFP reporter. […] Cells were transplanted into neonatal Rag2^−/−γc^−/− mice (70,000 cells per mouse), and animals were imaged 4 weeks after transplant on the IVIS 200, as previously described.^7,9 Human cell engraftment was also confirmed in the peripheral blood in the same week as imaging.
# [5] = test system: sAML PDX mouse models; test: Survival of humanized sAML PDX mice; assay type: in vivo, human sAML cells in mice
# Description: Here, we established humanized mouse models using CD34^+ stem cells isolated from the peripheral blood of adult secondary AML (sAML) patients or bone marrow of normal-aged donors (63-79 years old).
# The mouse models were screened by staining the PB of each mouse with a human CD45 mAb. Mice with a threshold of human CD45^+ cells >1% were included in the treatment cohort for Rebecchini. The dosing plan involved administering Rebecsinib at a dose of 10 mg/kg, intravenously, twice a week for 2 weeks, with a total of 5 doses. Single cells were isolated from the mouse organs, including PB, SP, and BM, and subjected to staining with human stem cell markers and lineage cell markers.
# These mice were monitored for survival throughout the study until they reached the endpoint. Survival data were analyzed using a Log-rank test.
smiles,measurement,setting,value
CC[C@H](OC)[C@@H](C)[C@H]1O[C@@H]1[C@@H](O)[C@H](C)/C=C/C=C(\C)[C@H]1OC(=O)C[C@H](O)CC[C@@](C)(O)[C@@H](OC(C)=O)/C=C/[C@@H]1C [Rebecsinib],activation of the interferon-inducible ADAR1p150 splice isoform,[1],inhibit activation of the interferon-inducible ADAR1p150 splice isoform
same,malignant splice isoform switching,[1],reverse malignant splice isoform switching
same,leukemia stem cell (LSC) maintenance,[1]; in vitro and in preclinical patient-derived AML mouse models,significantly reduce leukemia stem cell (LSC) maintenance
same,KG-1a AML cell survival,[2],impaired CD34^+ KG-1a AML cell survival
same,IC50,"[2]; Homo sapiens, CD34+ KG-1a AML cell survival and RFP to GFP reporter expression",~0.1 µM
same,ADAR1 activity,[3],repression of ADAR1 activity
same,"expression of LSC-associated transcripts, such as CD44v3 and MCL1-L",[3],reduced expression of LSC-associated transcripts
same,ADAR1 RNA editing activity (nanoluciferase signal),[4],significantly reduced ADAR1 RNA editing activity
same,survival of sAML-engrafted mice,"[5]; compared to vehicle, fedratinib, and the combination of rebecsinib and fedratinib",survived significantly longer
same,survival time versus single fedratinib,"[5]; single rebecsinib vs single fedratinib, p=0.016, Log-rank test",significantly longer
same,survival time versus vehicle,"[5]; single rebecsinib vs vehicle, p=0.0003, Log-rank test",significantly longer
